Results reported in patent US20260276652A1, “METHODS FOR ASSESSING PLATELET FUNCTION” (UNIVERSITY OF READING, priority 2023, published 2026).
Entries after “also recorded” stand apart in the source; their conditions may differ.

Key:
[1] = biological target: T1, glycoprotein VI (GPVI) receptor (Homo sapiens, UniProt Q9HCN6); details: Smethurst et al.; cited from earlier work
T1 sequence (Q9HCN6 21-339): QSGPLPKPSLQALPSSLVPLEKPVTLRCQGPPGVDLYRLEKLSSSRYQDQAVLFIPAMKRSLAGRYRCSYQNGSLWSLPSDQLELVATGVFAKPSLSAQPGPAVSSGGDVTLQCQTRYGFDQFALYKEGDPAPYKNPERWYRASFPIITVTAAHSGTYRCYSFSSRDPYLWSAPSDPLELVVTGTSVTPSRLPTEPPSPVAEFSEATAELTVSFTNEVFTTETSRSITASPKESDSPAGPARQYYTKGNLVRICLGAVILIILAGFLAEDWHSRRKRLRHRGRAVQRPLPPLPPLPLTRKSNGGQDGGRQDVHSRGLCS
T1 sequence (P30273 19-86 partner): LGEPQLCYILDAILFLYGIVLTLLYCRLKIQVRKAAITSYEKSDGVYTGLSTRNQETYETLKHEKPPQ

platelets in whole blood = assay: In vitro thrombus formation on type I collagen, whole blood perfused at arterial shear rate; assay type: cell-based, human; details: patients with ischaemic heart disease, 6 minutes, 1000 s^-1, student's t-test
Protocol: Thrombus formation on immobilized type I collagen was performed using the VenaFlux Platform and Vena 8Fluor+Biochips (Cellix). Channels were coated overnight at 4° C. with collagen, then blocked with 1% BSA/PBS for 1 h and replaced with PBS. Blood was collected into sodium citrate (4% w/v). Platelets in whole blood were incubated with 10 mM DiOC6 (Thermo Fisher Scientific) for 10 min. Perfusion was performed at 37° C. with an arterial shear rate of 1000 s^−1 for at least 520 seconds. Thrombus formation was visualised using a 20× magnification lens on a Nikon A1-R confocal microscope. Images were brightness corrected and converted to a binary mask with software provided auto-thresholds. Binary Mask Particles were then analysed to determine thrombus count and size.

platelets = assay: PPAnalysis flow cytometry assay of platelet sensitivity (p-selectin exposure) to CRP-XL in patients with ischaemic heart disease; assay type: cell-based, human; details: for sensitivity to CRP-XL of patients receiving aspirin compared with aspirin-free patients: patients with ischaemic heart disease, student's t-test
Protocol: The flow cytometry assay measured fluorescein isothiocyanate-conjugated anti-fibrinogen antibody and PE-Cy5-conjugated anti-P-selectin antibody binding following stimulation with ADP ([…]), collagen-related peptide (CRP; […]), epinephrine ([…]), thrombin receptor activator peptide 6 (TRAP-6; […]), and U46619 ([…]) using an Accuri C6 (B D, Winnersh, UK) for cohort 1 and a Beckman-Coulter EPICS Profile XL for cohort 2, as described in supplemental Section 2 of Dunster 2021 (Dunster et al. Multiparameter phenotyping of platelet reactivity for stratification of human cohorts, Blood Adv (2021) 5(20): 4017-4030).
A Platelet Phenomic Analysis (PPAnalysis) assay was carried out described in Dunster 2021. PPAnalysis comprises a flow cytometry-based assay and bespoke software that was developed to make data analysis simple, rapid, and reproducible. The assay simultaneously measures 2 aspects of platelet activation, fibrinogen binding (a marker of αllßb3 activation) and the exposure of P-selectin on the platelet surface (a marker of a-granule secretion). The supplementary information accompanying Dunster 2021 provides step-by-step instructions for setting up and carrying out the PPAnalysis assay and data analysis.

| Molecule | platelet agonist potency compared with non-cross-linked CRP [1] | in vitro thrombus volume in patients with versus without aspirin (platelets in whole blood) | sensitivity to CRP-XL of patients receiving ASA (platelets; patients with ischaemic heart disease receiving ASA, mean ± spread, ASA free patients 7.4±0.49) [log g/mL] | sensitivity to CRP-XL of patients receiving aspirin compared with aspirin-free patients (platelets) | sensitivity to CRP-XL of patients receiving aspirin compared with aspirin-free patients (platelets; listed as ASA) |
| --- | --- | --- | --- | --- | --- |
| (GPC-(GPO)10-GPCG-amide)3 [CRP-XL] | more potent platelet agonist | – | – | – | – |
| CC(=O)Oc1ccccc1C(=O)O [aspirin] | – | not reduced; also recorded: not significantly different | 7.2±0.37 | lower sensitivity to CRP-XL | significantly lower |
